# Measurements from publication PMC8536575, “Acute effects of the imidacloprid metabolite desnitro-imidacloprid on human nACh receptors relevant for neuronal signaling” (Archives of Toxicology, 2021).
# Assays:
# [1] = system: nAChRs on LUHMES neurons; assay: Desensitization of nAChR agonist-evoked [Ca2+]i responses of LUHMES neurons; type: cell-based, human
# Method: (§1) Ca^2+-imaging was performed using HT Functional Drug Screening System FDSS/µCELL (Hamamatsu Photonics) at nominal 37 °C. The FDSS/µCell system enables the indirect recording of changes of [Ca^2+]i via a Ca^2+-sensitive fluorescent dye. The fluorescence signal of a complete 384-well plate is acquired at once with a high-speed and high-sensitivity digital ImagEM X2 EM-CCD camera (Electron Multiplying Charge-Coupled Device, Hamamatsu Photonics), but with limited spatial resolution. Therefore, the software only determines the mean fluorescence signal of each well rather than of individual cells. For compound application, the integrated dispenser head with 384 pipette tips was used, which can add the test compound to all wells simultaneously. Cells were preincubated with Cal-520 AM (AAT Bioquest) at a concentration of 1 µM for 1 h at 37 °C. For recording, the medium was exchanged by a buffer solution containing [mM]: 135 NaCl, 5 KCl, 0.2 MgCl2, 2.5 CaCl2, 10 HEPES, and 10 D-glucose, pH 7.4. Test compound application was executed after obtaining a 1.5 min baseline recording. Where applicable, a second application was executed 4.5 min after the first application. The total recording never exceeded 8 min.
# (§2) For the high-throughput Ca^2+-imaging data obtained in LUHMES cells, an offset correction using the FDSS software (version 3.2) was performed. Afterward, the data were exported and further analyzed with scripts written in R (version 3.6.3) (R Core Team [2020]). The concentration–response curves were fitted using a log-logistic model described by Ritz et al. ([2015]), utilizing the R package drc with its function drm() and LL2.2() with the following equation: f(x) = d/[1 + exp(b(log(x) − ẽ))] (Ritz et al. [2015]). The logarithm of the half-maximal effective concentration (logEC50) between 0 and the upper limit (d), which was set to 1, is represented by ẽ, x denotes the concentration, and b stands for the slope parameter (Ritz et al. [2015]). In cases with normalizations to responses induced by other compounds, the function LL2.3() was used with a variable upper limit (d; Ritz et al. [2015]). The same equation was used to determine the half-maximal inhibitory concentration (logIC50). Then the logEC50 and logIC50 values were converted into the pIC50 and pEC50 values, which are the negative logarithms to base 10.
# Fig. 4 Desensitizing effects of DN-IMI and IMI-olefin on nAChRs. LUHMES neurons differentiated in 384-well plates were pretreated with various concentrations of DN-IMI or IMI-olefin for 4.5 min before different nAChR agonists were applied and [Ca^2+]i signals were recorded. […] Note the treatment scheme (upper right corner), illustrating the experimental design. […] Note the treatment scheme (upper right corner), illustrating the experimental design. Detailed data on n numbers are found in Table S6
# [2] = Clearance study in a hepatocyte co-culture system; details: human, hepatocytes
# From the text: Renal clearance for DN-IMI was assumed to be governed only by passive processes, with both filtration and passive reabsorption being accounted for. Passive permeability was scaled from the predicted permeability in the intestine (Peff 0.37 10-4 cm/s) accounting for the surface area of the proximal tubules in the kidney.
# [3] = system: Xenopus laevis oocytes without additional receptor expression; assay: Control recordings in oocytes without additional receptor expression; type: cell-based; details: DN-IMI 30 µM, injection of water without mRNA, n = 5
# Method: First, we focused our experiments on the α4β2 receptor, which can assemble in two different stoichiometries. […] For control purposes, we applied DN-IMI (30 µM) to Xenopus laevis oocytes without additional receptor expression (injection of water without mRNA).
# [4] = monoprotic base; average of values; ref CHEMBL and ACD; cited from earlier work
# [5] = system: nAChRs on LUHMES neurons; assay: High-throughput Ca2+-imaging of LUHMES neurons (agonist effect); type: cell-based, human
# Method: For Ca^2+-imaging, the cells were pre-differentiated for 48 h in cell culture flasks, detached and plated at a density of 20,000 cells and 30,000 cells per well on 0.1% PEI-coated 384-well and 96-well plates (Greiner Bio-One), respectively, for the Ca^2+-imaging. The cells were further differentiated for another 7 days. 50% of the medium was exchanged every 2–3 days.
# as §1, §2
# [6] = system: LUHMES neurons; assay: Single-cell Ca2+-imaging of LUHMES neurons; type: cell-based, human; details: single-cell time-lapse fluorescence microscopy
# Method: For Ca^2+-imaging experiments with a higher resolution on the single-cell level, the Cell Observer (Carl Zeiss Microscopy) was used. The Ca^2+-sensitive dye, the cell handling before the experiment, and the buffer were the same as described above for the experiments with the high-throughput FDSS/µCELL system. The recordings were performed with 2 × 2 binning and a 42 ms exposure time. The compounds were applied after a baseline recording of at least 10 s.
# The single-cell Ca^2+-imaging recordings were exported and analyzed in Fiji ImageJ (version 1.52i) to get the average fluorescence signal of each cell. These signals were further analyzed in R, where a threshold detection was performed to detect responding cells. For this, the offset was corrected by subtracting the mean of 20–65% of the fluorescence signal of the pre-application period from the recording, to be robust against spontaneous activity. The threshold was defined as mean + 3 * SD of the negative control recordings, during the detection phase of 6.5 s during the application.
structure (smiles),measurement,setting,value
"NC1=NCCN1Cc1ccc(Cl)nc1 [DN-IMI, desnitro-imidacloprid]",concentrations inhibiting subsequent activation of nAChRs (desensitization),"[1]; BMR10, LUHMES",≥ 10 nM
same,times more potent than IMI (desensitization),[1]; compared to effects of IMI in Loser et al. [2021a],~ 70 times
same,BMC for receptor desensitization,[1]; for a 20% effect,~ 17 nM
same,pIC50 for desensitization of the nicotine-evoked response,"[1]; pretreatment […], 3 µM nicotine",6.9
same,hepatocyte CLint,[2],< 143 µL/min/1e6 cells
same,current responses in oocytes without receptor expression,[3],did not detect any current responses
same,pKa,[4],9.6
same,pEC50 of [Ca2+]i response (peak amplitude),"[5]; LUHMES neurons, absence of PNU, normalized to the maximal response stimulated by DN-IMI, tested ≤ 100 µM",6.6
same,increase of the maximal amplitude by PNU,[5]; PNU-120596 10 µM,around 40%
same,"upper asymptote, % of the maximal response",[5]; absence of PNU,53%
same,relative half maximum (turning point),"[5]; absence of PNU, normalized to maximal response to DN-IMI in presence of PNU",6.8 ± 0.04 -log(M)
same,concentrations triggering [Ca2+]i responses,[5]; human neurons,≥ 100 nM
same,BMC for 20% response,[5]; in different systems ([Ca2+]i signaling and single nAChR data),100 to 300 nM
same,relative half maximum (turning point),[5]; presence of PNU (10 µM),6.5 ± 0.03 -log(M)
same,"upper asymptote, % of the maximal response",[5]; presence of PNU (10 µM),93%
same,percentage of responsive cells,[6],~ 80%
